# Measured values taken from patent EP0125052B1, “Dopaminergic carbostyrils and a process for preparing them” (SMITHKLINE BECKMAN CORPORATION, priority 1983, dated 1984).
# Tests used:
# anesthetized dog = anesthetized dog protocol (renal dog screen) measuring renal and cardiovascular parameters; type: in vivo; design: decreased heart rate / arterial blood pressure: dose or concentration left out as unconfirmed
# From the text: The prior art dopaminergic agent, dopamine, is used as a positive control.
# [1] = test system: spontaneously hypertensive rat (SHR); experiment: spontaneously hypertensive rat (SHR) protocol; type: in vivo
# D2 = D2 (Oryctolagus cuniculus, UniProt G1T1Q0); experiment: cell-based
# Chain of D2 (G1T1Q0 1-443): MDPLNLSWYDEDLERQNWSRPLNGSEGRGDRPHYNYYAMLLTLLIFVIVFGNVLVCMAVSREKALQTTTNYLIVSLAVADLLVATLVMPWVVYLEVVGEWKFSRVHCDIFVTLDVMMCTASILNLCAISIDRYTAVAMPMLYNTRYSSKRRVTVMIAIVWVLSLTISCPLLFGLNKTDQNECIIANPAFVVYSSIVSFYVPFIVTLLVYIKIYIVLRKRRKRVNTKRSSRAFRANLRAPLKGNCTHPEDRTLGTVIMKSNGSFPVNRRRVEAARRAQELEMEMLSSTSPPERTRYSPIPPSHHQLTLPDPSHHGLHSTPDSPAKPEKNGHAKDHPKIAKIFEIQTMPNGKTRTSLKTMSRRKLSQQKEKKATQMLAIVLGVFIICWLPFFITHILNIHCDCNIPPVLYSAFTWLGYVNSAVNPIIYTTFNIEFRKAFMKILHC
smiles,measurement,setting,value
CCCN(CCC)CCc1ccc(O)c2[nH]c(=O)ccc12 [5-di-n-propylaminoethyl-8-hydroxycarbostyril],renal blood flow,"anesthetized dog; dog protocol, 3 and 30 pg/kg/min infusion",increased renal blood flow
same,systolic hypertension,"[1]; rat test, 12.5, 25 and 50 mg/kg, i.p.",decreased systolic hypertension
CCCN(CCc1ccc(O)cc1)CCc1ccc(O)c2[nH]c(=O)ccc12 [5-[N-n-propyl-N-(p-hydroxyphenethyl)aminoethyl)-8-hydroxycarbostyril],EC50,D2,12 nM
Cl.NCCc1ccc(O)c2[nH]c(=O)ccc12 [5-aminoethyl-8-hydroxycarbostyril hydrochloride],ED15,"anesthetized dog; Canis lupus familiaris, read-out: RVR-ED15",1.8 µg/kg
same,arterial blood pressure,"anesthetized dog; by infusion, renal dog screen",-8%
same,decreased heart rate,"anesthetized dog; by infusion, renal dog screen",22.5%
same,systolic blood pressure,"[1]; SHR, 25 mg/kg intraperitoneally administered",lowered systolic blood pressure
